Legend:
Assay type in all cases: in vivo
[1] = tested on: dogs suffering from osteoarthritis; experiment: Example 1: pain relief and side effects in canine osteoarthritis; details: dogs with osteoarthritis, 4 weeks of administration, group average
Description: This example examines the ability of various compositions to minimize pain and examines the level of adverse side effects of each composition.
At the outset of the study, participants receive a full physical examination, including weight measurement, thigh circumference, and CBC/blood chemistries. Because osteoarthritis is not only a disease of pain, but one characterized by behavioral, appetite, anxiety/aggression, family socialization, and sleep aberrations, the pet's owners are familiarized with the pain scale (canine orthopedic index) and additional behavioral assessment log.
The patient group is twenty-four dogs suffering from osteoarthritis, broken into eight groups of three dogs. The first group receives a control composition with no active agent; the second group receives a composition comprising HA as the sole active agent; the third group receives a composition comprising HMW HA as the sole active agent; the fourth group receives a composition comprising CBD as the sole active agent; the fifth group receives a composition comprising HA and CBD as the active agents; the sixth group receives a composition comprising HMW HA and CBD as the active agents; the seventh group receives a composition comprising Rimadyl as the active agent; and the eighth group receives a composition comprising Meloxicam as the active agent.
Each composition is administered for a period of four (4) weeks. The owner completes the electronic log questionnaire each week. At the end of the 4-week study, participants have another full physical examination, including weight measurement, thigh circumference, and CBC/blood chemistries, with an exit interview of the owners to gain final impressions.
Each group is evaluated for pain scores and the scores averaged. The following scores are observed and the results depicted in FIG. 1: […]

[2] = tested on: dogs suffering from cognitive dysfunction syndrome; experiment: Example 2: cognitive decline, Cognitive Dysfunction Screening Checklist; details: for Average Initial Score: day 0 (before treatment); for Average Final Score: day 60, BID
Description: This example examines the ability of embodiments of the invention versus Anipryl® to treat cognitive decline.
The patient group is twenty dogs suffering from cognitive dysfunction syndrome, as determined by the Cognitive Dysfunction Screening Checklist. See G. Landsberg et al., 2003 HANDBOOK OF BEHAVIOR PROBLEMS OF THE DOG AND CAT (Elsevier Science Limited) (2003). The twenty dogs are broken into five groups of four dogs. The first group receives Anipryl® as the sole active agent; the second group receives a composition comprising HMW HA as the sole active agent; the third group receives a composition comprising CBD as the sole active agent; the fourth group receives a composition comprising HMW HA and CBD as the active agents; and the fifth group receives a composition comprising HMW HA, CBD, nicotinamide adenine dinucleotide (“NAD”), and phosphatidylserine as the active agents.
Each composition is administered for a period of sixty (60) days, twice per day (“BID”). The owner completes the Checklist on days 0 (“Initial Score”), 15, 30, 45, and 60 (“Final Score”) of treatment.
Each group is evaluated and Checklist scores averaged. The following scores are observed and the results depicted in FIG. 2: […]

[3] = tested on: dogs suffering from joint inflammation; experiment: Example 4: joint inflammation, thermal imaging (canine); details: over the inflamed joint, 60 days BID
Description: (§1) This example examines the ability of embodiments of the invention versus Cosequin® to treat joint inflammation.
(§2) The first patient group is twenty dogs suffering from joint inflammation. The second patient group is twenty cats suffering from joint inflammation. The third patient group is twenty horses suffering from joint inflammation. Each patient group is broken into five groups of four animals. The first groups receive Cosequin® as the sole active agent; the second groups receive a composition comprising HMW HA as the sole active agent; the third groups receive a composition comprising CBD as the sole active agent; the fourth groups receive a composition comprising HMW HA and CBD as the active agents; and the fifth groups receive a composition comprising HMW HA, CBD, Boswellia, and superoxide dismutase (“SOD”) as the active agents.
(§3) Each composition is administered for a period of sixty (60) days, BID. Efficacy is determined by a decrease in body temperature over the inflamed joint, as measured by thermal imaging (e.g., via Digatherm device). Thermal imaging is performed on days 0 (“Initial Score”), 15, 30, 45, and 60 (“Final Score”) of treatment.
The following canine scores are observed and the results depicted in FIG. 4a: […]

[4] = tested on: cats suffering from joint inflammation; experiment: Example 4: joint inflammation, thermal imaging (feline); details: over the inflamed joint, 60 days BID
Description: as §1, §2, §3
The following feline scores are observed and the results depicted in FIG. 4b: […]

[5] = tested on: horses suffering from joint inflammation; experiment: Example 4: joint inflammation, thermal imaging (equine); details: over the inflamed joint, 60 days BID
Description: as §1, §2, §3
The following equine scores are observed and the results depicted in FIG. 4c: […]

[6] = tested on: dogs suffering from joint inflammation; experiment: Example 12: joint inflammation, thermal imaging (canine, CBD Complex); details: over the inflamed joint, 60 days BID
Description: as §1
(§4) The first patient group is twenty dogs suffering from joint inflammation. The second patient group is twenty cats suffering from joint inflammation. The third patient group is twenty horses suffering from joint inflammation. Each patient group is broken into five groups of four animals. The first groups receive Cosequin® as the sole active agent; the second groups receive a composition comprising HMW HA as the sole active agent; the third groups receive a composition comprising CBD as the sole active agent; the fourth groups receive a composition comprising HMW HA and CBD Complex as the active agents; and the fifth groups receive a composition comprising HMW HA, CBD Complex, Boswellia, and superoxide dismutase (“SOD”) as the active agents.
as §3
The following canine scores are observed and the results depicted in FIG. 12a: […]

[7] = tested on: cats suffering from joint inflammation; experiment: Example 12: joint inflammation, thermal imaging (feline, CBD Complex); details: over the inflamed joint, 60 days BID
Description: as §1, §4, §3
The following feline scores are observed and the results depicted in FIG. 12b: […]

[8] = tested on: cats suffering behavior aberrations and/or anxiety; experiment: Example 13: behavior aberrations and anxiety, Fe-BARQ (feline, CBD Complex); details: Fe-BARQ day 0 vs 60, SID, 0 (no improvement) to 3 (marked improvement)
Description: This example examines the ability of embodiments of the invention versus Clomicalm® to reduce behavior aberrations and anxiety.
The first patient group is twenty dogs suffering behavior aberrations and/or anxiety, as determined by the canine behavioral assessment and research questionnaire (“C-BARQ”). […] The second patient group is twenty cats suffering behavior aberrations and/or anxiety, as determined by the feline behavioral assessment and research questionnaire (“Fe-BARQ”).
Each group is broken into five groups of four animals. The first group receives Clomicalm® as the sole active agent; the second group receives a composition comprising HMW HA as the sole active agent; the third group receives a composition comprising CBD as the sole active agent; the fourth group receives a composition comprising HMW HA and CBD Complex as the active agents; and the fifth group receives a composition comprising HMW HA, CBD Complex, valerian root, and scutillaria as the active agents.
Each composition is administered for a period of sixty (60) days, once a day (“SID”). Owners complete the species-appropriate C-BARQ or Fe-BARQ on days 0 and 60 of treatment. The results from the overall questionnaire are averaged and characterized as no improvement (score of 0), mild improvement (score of 1), moderate improvement (score of 2), or marked improvement (score of 3).

Compound: C=C(C)[C@@H]1CCC(C)=C[C@H]1c1c(O)cc(CCCCC)cc1O [CBD Alone, 2-[(1R,6R)-3-methyl-6-prop-1-en-2-ylcyclohex-2-en-1-yl]-5-pentylbenzene-1,3-diol]
- Average Pain Score [1]: 19
- Average Side Effect Score [1]: 0.5
- Average Pain Score ([1]; listed as CBD alone): not especially effective in reducing pain
- Average Side Effect Score ([1]; listed as CBD alone): even lower degree of adverse side effects
- Average Initial Score [2]: 3
- Average Final Score [2]: 1.5
- Reduction in Temperature (° F.) [3]: 1.7 ° F.
- Reduction in Temperature (° F.) [4]: 2.0 ° F.
- Reduction in Temperature (° F.) [5]: 1.6 ° F.
- Reduction in Temperature (° F.) [6]: 1.7 ° F.
- Reduction in Temperature (° F.) [7]: 2.0 ° F.
- Improvement Score [8]: 1.8

Compound: hyaluronic acid [HMW HA Alone]
- Average Pain Score [1]: 16
- Average Side Effect Score [1]: 4
- Average Pain Score ([1]; listed as HMW HA alone): only slightly reduce pain
- Average Side Effect Score ([1]; listed as HMW HA alone): low degree of adverse side effects
- Average Initial Score [2]: 3
- Average Final Score [2]: 2
- Reduction in Temperature (° F.) [3]: 1.9 ° F.
- Reduction in Temperature (° F.) [4]: 2.3 ° F.
- Reduction in Temperature (° F.) [5]: 2.1 ° F.
- Reduction in Temperature (° F.) [6]: 1.9 ° F.
- Reduction in Temperature (° F.) [7]: 2.3 ° F.
- Improvement Score [8]: 1

Reference: patent publication US20220054532A1, “VETERINARY COMPOSITIONS AND METHODS OF USE THEREFOR” (priority 2019, published 2022)
